Measured values as given in patent US7109186B2 (Bristol-Myers Squibb Company, priority 2002, dated 2006).

Target: T1, HIV-integrase (Human immunodeficiency virus type 1 group M subtype B, UniProt P04585)
T1 construct: 0.26 ng of recombinant integrase was incubated with the beads for 90 min at 37 C
Test: HIV integrase SPA integration assay (biotin-labeled substrate DNA on streptavidin SPA beads, P33-labeled target DNA)
Type: biochemical
Conditions: percent inhibition of HIV-integrase in the presence of 20 μM of compound
Experimental: For each reaction, 5 pmole of biotin labeled substrate DNA was bound to 100 ug of Streptavidin coated PVT SPA beads (Amersham Pharmacia Biotech). 0.26 ng of recombinant integrase was incubated with the beads for 90 min at 37 C. Unbound enzyme was removed by washing the complex followed by addition of inhibitors and 0.1 fmol of P33 labeled target DNA. Reaction was stopped by adding EDTA to a final concentration of 10 mM. Samples were counted in TopCountNXT (Packard) and the CPM was used as a measure of integration. Reaction condition was as described in A. Engelman and R. Craigie, J. Virol. 69, 5908–5911 (1995). The sequences of substrate and target DNA were described in Nucleic Acid Research 22, 1121–1122 (1994).

SMILES | inhibition at 20 µM
CN(Cc1ccc(Cl)c(Cl)c1)C(=O)C1=C(O)C(=O)N(Cc2ccc(C(=O)O)cc2)C1 [Compound 36, 4-{4-[(3,4-Dichloro-benzyl)-methyl-carbamoyl]-3-hydroxy-2: oxo-2,5-dihydro-pyrrol-1-ylmethyl}-benzoic acid] | 92%
CN(Cc1ccc(Cl)c(Cl)c1)C(=O)C1=C(O)C(=O)N(CCN2CCCCC2)C1 [Compound 26, 4-Hydroxy-5-oxo-1-(2-piperidin-1-yl-ethyl)-2,5-dihydro-1H-pyrrole-3-carboxylic acid (3,4-dichloro-benzyl)-methyl-amide] | 99.9%
CON(Cc1ccc(C(=O)OC(C)(C)C)cc1)C(=O)C1=C(O)C(=O)N(C)C1 [Compound 68-A, 4-{[(4-Hydroxy-1-methyl-5-oxo-2,5-dihydro-1H-pyrrole-3-carbonyl)-methoxy-amino]-methyl}-benzoic acid tert-butyl ester] | 4.5%
CN(Cc1ccc(F)cc1)C(=O)C1=C(O)C(=O)N(CCc2ccc(Cl)cc2)C1 [Compound 2, 1-[2-(4-Chloro-phenyl)ethyl]-4-hydroxy-5-oxo-2,5-dihydro-1H-pyrrole-3-carboxylic acid (4-fluoro-benzyl)-methyl amide] | 99.9%
CN(Cc1ccc(Cl)c(Cl)c1)C(=O)C1=C(O)C(=O)N(CCCn2ccnc2)C1 [Compound 30, 4-Hydroxy-1-(3-imidazol-1-yl-propyl)-5-oxo-2,5-dihydro-1H-pyrrole-3-carboxylic acid (3,4-dichloro-benzyl)-methyl-amide] | 99.9%
CN(Cc1ccc(F)cc1)C(=O)C1=C(O)C(=O)N(CCc2ccccc2Cl)C1 [Compound 3, 1-[2-(Chloro-phenyl)-ethyl]-4-hydroxy-5-oxo-2,5-dihydro-1H-pyrrole-3-carboxylic acid (4-fluoro-benzyl)-methyl amide] | 99.9%
CCOP(=O)(CCN1CC(C(=O)N(C)Cc2ccc(Cl)c(Cl)c2)=C(O)C1=O)OCC [Compound 23-A, (2-[4-[(3,4-Dichloro-benzyl)-methyl-carbamoyl]-3-hydroxy-2-oxo-2,5-dihydro-pyrrol-1-yl]-ethyl)-phosphonic acid diethyl ester] | 99.9%
CN(Cc1ccc(Cl)c(Cl)c1)C(=O)C1=C(O)C(=O)N(CCC(N)=O)C1 [Compound 40, 1-(2-Carbamoyl-ethyl)-4-hydroxy-5-oxo-2,5-dihydro-1H-pyrrole-3-carboxylic acid (3,4-dichloro-benzyl)-methyl-amide] | 99.9%
CN1CC(C(=O)N(C)Cc2ccccc2)=C(O)C1=O [Compound 79, 4-Hydroxy-1-methyl-5-oxo-2,5-dihydro-1H-pyrrole-3-carboxylic acid benzyl-methyl-amide] | 92.4%
CN(Cc1ccc(Cl)c(Cl)c1)C(=O)C1=C(O)C(=O)N(CCCC(=O)O)C1 [Compound 24, 4-{4-[(3,4-Dichloro-benzyl)-methyl-carbamoyl]-3-hydroxy-2-oxo-2,5-dihydro-pyrrol-1-yl}-butyric acid] | 99.9%
CN(Cc1ccc(F)cc1)C(=O)C1=C(O)C(=O)N(CCc2ccccc2)C1 [Compound 8, 4-Hydroxy-5-oxo-1-phenethyl-2,5-dihydro-1H-pyrrole-3-carboxylic acid (4-fluoro-benzyl)-methyl-amide] | 99.9%
CN1CCN(CCN2CC(C(=O)N(C)Cc3ccc(Cl)c(Cl)c3)=C(O)C2=O)CC1 [Compound 32, 4-Hydroxy-1-[2-(4-methyl-piperazin-1-yl)-ethyl]-5-oxo-2,5-dihydro-1H-pyrrole-3-carboxylic acid (3,4-dichloro-benzyl)-methyl-amide] | 99.9%
CN1CC(C(=O)N(C)Cc2ccc(F)cc2)=C(O)C1=O [Compound 1, 4-Hydroxy-1-methyl-5-oxo-2,5-dihydro-1H-pyrrole-3-carboxylic acid (4-fluoro-benzyl)-methyl amide] | 99.9%
COC(=O)c1ccc(CN2CC(C(=O)N(C)Cc3ccc(Cl)c(Cl)c3)=C(O)C2=O)cc1 [Compound 41, 4-{4-[(3,4-Dichloro-benzyl)-methyl-carbamoyl]-3-hydroxy-2-oxo-2,5-dihydro-pyrrol-1-ylmethyl}-benzoic acid methyl ester] | 99.9%
CN(Cc1ccc(Cl)c(Cl)c1)C(=O)C1=C(O)C(=O)N(CCC(=O)NCCC(=O)O)C1 [Compound 37, 3-(3-{4-[(3,4-Dichloro-benzyl)-methyl-carbamoyl]-3-hydroxy-2oxo-2,5-dihydro-pyrrol-1-yl}-propionylamino)-propionic acid] | 99.9%
CN(Cc1ccc(F)cc1)C(=O)C1=C(O)C(=O)N(CCc2ccccc2F)C1 [Compound 5, 1-[2-(2-Fluoro-phenyl)-ethyl]-4-hydroxy-5-oxo-2,5-dihydro-1H-pyrrole-3-carboxylic acid (4-fluoro-benzyl)-methyl-amide] | 99.8%

SMILES | inhibition at 20 µM
CN(Cc1ccc(Cl)c(Cl)c1)C(=O)C1=C(O)C(=O)N(CCC#N)C1 [Compound 42, 1-(2-Cyano-ethyl)-4-hydroxy-5-oxo-2,5-dihydro-1H-pyrrole-3carboxylic acid (3,4-dichloro-benzyl)-methyl-amide] | 99.9%
CN(Cc1ccc(Cl)c(Cl)c1)C(=O)C1=C(O)C(=O)N(CCC(=O)NCC(=O)O)C1 [Compound 39, (3-{4-[(3,4-Dichloro-benzyl)-methyl-carbamoyl]-3-hydroxy-2-oxo-2,5-dihydro-pyrrol-1-yl}-propionylamino)-acetic acid] | 99.9%
CON(C(=O)C1=C(O)C(=O)N(C)C1)C(c1ccc(F)cc1)c1ccc(F)cc1 [Compound 73, 4-Hydroxy-1-methyl-5-oxo-2,5-dihydro-1H-pyrrole-3-carboxylic acid [bis-(4-fluoro-phenyl)-methyl]-methoxy-amide] | 10%
CON(Cc1ccc(F)cc1)C(=O)C1=C(O)C(=O)N(CCN2CCOCC2)C1 [Compound 45, 4-Hydroxy-1-(2-morpholino-4-yl-ethyl)-5-oxo-2,5-dihydro-1H-pyrrole-3-carboxylic acid (4-fluoro-benzyl)-methoxy-amide] | 99.5%
CN(Cc1ccc(Cl)c(Cl)c1)C(=O)C1=C(O)C(=O)N(Cc2ccc(Cl)c(Cl)c2)C1 [Compound 19, 1-(3,4-Dichloro-benzyl)-4-hydroxy-5-oxo-2,5-dihydro-1H-pyrrole-3-carboxylic acid (3,4-dichloro-benzyl)-methyl-amide] | 99.9%
CN(Cc1ccc(F)cc1)C(=O)C1=C(O)C(=O)N(CCc2cccs2)C1 [Compound 4, 4-Hydroxy-5-oxo-1-(2-thiophen-2-yl-ethyl)-2,5-dihydro-1H-pyrrole-3-carboxylic acid (4-fluoro-benzyl)-methyl-amide] | 99.9%
CN1CC(C(=O)N(Cc2ccc(Cl)cc2)Cc2ccc(Cl)c(Cl)c2)=C(O)C1=O [Compound 77, 4-Hydroxy-1-methyl-5-oxo-2,5-dihydro-1H-pyrrole-3-carboxylic acid (4-chloro-benzyl)-(3,4-dichloro-benzyl)-amide] | 99.8%
CN(Cc1ccc(Cl)c(Cl)c1)C(=O)C1=C(O)C(=O)N(CCc2ccc(S(N)(=O)=O)cc2)C1 [Compound 17, 4-Hydroxy-5-oxo-1-[2-(4-sulfamoyl-phenyl)-ethyl]-2,5-dihydro-1H-pyrrole-3-carboxylic acid (3,4-dichloro-benzyl)-methyl-amide] | 99.9%
CN(Cc1ccc(Cl)c(Cl)c1)C(=O)C1=C(O)C(=O)N(Cc2cccs2)C1 [Compound 31] | 99.9%
CN(Cc1ccc(Cl)c(Cl)c1)C(=O)C1=C(O)C(=O)N(CC(=O)NCC(=O)NCCC(=O)NCC(=O)O)C1 [Compound 35, {3-[2-(2-{4-[(3,4-Dichloro-benzyl)-methyl-carbamoyl]-3-hydroxy-2-oxo-2,5-dihydro-pyrrol-1-yl}-acetylamino)-acetylamino]-propionylamino}-acetic acid] | 99.9%
CN(Cc1ccc(Cl)c(Cl)c1)C(=O)C1=C(O)C(=O)N(CCP(=O)(O)O)C1 [Compound 23, (2-{4-[(3,4-Dichloro-benzyl)-methyl-carbamoyl]-3-hydroxy-2-oxo-2,5-dihydro-pyrrol-1-yl}-ethyl)-phosphonic acid] | 99.9%
CCN1CCCC1CN1CC(C(=O)N(C)Cc2ccc(Cl)c(Cl)c2)=C(O)C1=O (centres unmarked) [Compound 22, 1-(1-Ethyl-pyrrolidin-2-ylmethyl)-4-hydroxy-5-oxo-2,5-dihydro-3-carboxylic acid (3,4-dichloro-benzyl)-methyl-amide] | 99.9%
CN(Cc1ccc(Cl)c(Cl)c1)C(=O)C1=C(O)C(=O)N(CCCCCCC(=O)O)C1 [Compound 28, 7-{4-[(3,4-dichloro-benzyl)-methyl-carbamoyl]-3-hydroxy-2-oxo-2,5-dihydro-pyrrol-1-yl}-heptanoic acid] | 99.9%
CN(Cc1ccc(Cl)c(Cl)c1)C(=O)C1=C(O)C(=O)N(CCCN2CCOCC2)C1 [Compound 43, 4-Hydroxy-1-(3-morpholin-4-yl-propyl)-5-oxo-2,5-dihydro-1H-pyrrole-3-carboxylic acid (3,4-dichloro-benzyl)-methyl-amide] | 99.9%
CN(Cc1ccc(Cl)c(Cl)c1)C(=O)C1=C(O)C(=O)N(CCNC(=O)CCN2CCOCC2)C1 [Compound 38, 4-Hydroxy-1-[2-(3-morpholin-4-yl-propionylamino)-ethyl]-5-oxo-2,5-dihydro-1H-pyrrole-3-carboxylic acid (3,4-dichloro-benzyl)-methyl-amide] | 99.9%
CON(Cc1ccc(F)cc1F)C(=O)C1=C(O)C(=O)N(C)C1 [Compound 60, 4-Hydroxy-1-methyl-5-oxo-2,5-dihydro-1H-pyrrole-3-carboxylic acid (2,4-difluoro-benzyl)-methoxy-amide] | 99.7%
